# According to patent US11292821B2, “Peptides and combination of peptides for use in immunotherapy against lung cancer, including NSCLC, SCLC and other cancers” (Immatics Biotechnologies GmbH, priority 2017, dated 2022):
# What was measured:
# CD8+ T cells = test: In vitro T-cell priming assay with aAPCs (in vitro immunogenicity for MHC class I presented peptides); assay type: cell-based, human; details: in vitro immunogenicity, HLA B*08
# HLA-B*08 = test: MHC binding assay (UV-ligand exchange, β2m ELISA); set-up: species or system human
"Peptide exchange (peptide exchange yield, MHC class I binding score) (HLA-B*08)",Substance,Wells positive [%] (CD8+ T cells)
“+++” (>50 = +++),316 (VIKEKALTL; listed as Homo sapiens) [compound 316],“+” (<20% = +)
“++++” (>75% = ++++),318 (EAAIRSVEL; listed as Homo sapiens) [compound 318],“++” (20%-49% = ++)
